Test results from patent US20250027930A1, “SMALL MOLECULES FOR REPROGRAMING ANTI-TUMOR IMMUNITY OF T CELLS” (THE SCRIPPS RESEARCH INSTITUTE, priority 2021, published 2025).

Assays:
[1] = system: OT-I splenocytes; test: OT-I splenocyte culture with purine/pyrimidine pathway compounds; type: cell-based, mouse; conditions: added together with N-Acetylneuraminic acid on day 3, analyzed day 5
Experimental: We therefore tested if purine and pyrimidine nucleotides have similar effects as N-Acetylneuraminic acid to help maintain less differentiated phenotypes of T cells during expansion. OT-I splenocytes were cultured with 500 nM […] peptide (OVA257-264) for three days at initial cell density of 1×10^6/mL to activate and expand the CD8+ T cell population. Different concentrations of the products or intermediates in purine or pyrimidine de novo synthesis pathways were added on day 3. The tested compounds include, e.g., guanosine, deoxyguanosine, adenosine, deoxyadenosine, inosine, xanthosine, orotidine, uridine, cytidine, deoxycytidine, thymidine, deoxythymidine, 5-Aminoimidazole-4-carboxamide ribonucleotide (AICAR), orotate, and dihydroorotate. The phenotype of expanded T cells were analyzed on day 5.

[2] = system: OT-1 cells; test: OT-I-Tcf7GFP splenocyte screen: proliferation and Tim3−TCF-1+ ratio; type: cell-based, mouse; conditions: Day7; for Tim3^−TCF-1^+ ratio of CD8^+ T cells (%): w/o 2.6
Experimental: Cell number was recorded on day 3 and day 7. On day 7, cells were stained with anti-CD8a (PerCP-Cy5.5) and anti-Tim3 (BV421) antibodies for flow cytometry or plate reader analysis.
Because TCF1 expression positively correlates with T cell stemness, the greater signal of EGFP a T cell expresses, the less differentiated the T cell is. Furthermore, if the compound also facilitates T cells proliferation, there would be more T cells per well in comparison to the untreated control. Therefore, a compound that not only maintains TCF-1 expression but also facilitates T cell growth would produce the strongest green fluorescence intensity. […] GlcA stands for glucuronic acid.

[3] = system: P14 cells; test: P14 splenocyte in vitro activation, re-stimulation and expansion; type: cell-based, mouse; conditions: for Fold of proliferation, Normalized to W/O: P14 cells
[4] = system: P14 CD8+ T cells; type: in vivo, mouse; conditions: 14 dpi LCMV-Cl13; cells treated in vitro, vs untreated
[5] = system: B16-OVA tumor; type: in vivo, mouse
Experimental: (§1) Naïve splenocytes from OT-1 mice were stimulated in vitro with OVA257-264 (500 nM) and IL-2 (60 IU/mL) in the presence or absence of an added compound for 3 days at a density of 1 million/mL (100 uL/well in 96/well plate), then expanded for 4 days. On day 7, PD-1, Tim3 and TCF-1 expressions were assessed by flow cytometry by staining cells with anti-CD8a (PerCP-Cy5.5), anti-Tim3 (BV421) and anti-TCF-1 (AF488) antibodies. For adoptive transfer, 0.6M B16-OVA cells (6×10^5) were inoculated subcutaneously 3 to 5 days before transfer in C57BL/6. On the day of adoptive transfer, mice were irradiated with 5 Gy X-ray, randomized according to tumor size, and intravenously injected with 0.2-0.3M of CD8+OT-1 T cells (2×10^5) expanded under different conditions, followed by administration of 50000 IU IL-2 every 12 h for four days. In the control group, mice were injected with cell-free vehicle only. For assessment of adoptive transfer of OT-1 CD8+ T cells activated and expanded by contacting the cells with fructose, on day 9 after transfer, anti-PD-1 (100 ug/mouse) was administered to the mice that had received T cell transfer. For assessment of adoptive transfer of OT-1 CD8+ T cells activated and expanded by contacting cells with Neu5Ac, on day 14 and day 21 after transfer, anti-PD-1 (100 ug/mouse) was administered to the mice that had received T cell transfer. The tumor growth was monitored every 3 to 4 days by measuring tumor size. Percent survival was also monitored and recorded within a period of 40 days post treatment. To evaluate tumor infiltrating OT-1 T cells, 0.6M B16-OVA cells (6×10^5) were inoculated subcutaneously 3 to 5 days before transfer in C57BL/6. On the day of adoptive transfer, mice were irradiated with 5 Gy X-ray, randomized according to tumor size, and intravenously injected with 0.2-0.3M of CD8+OT-1 T cells (2×10^5) expanded under different conditions, followed by administration of 50000 IU IL-2 every 12 h for four days. Tumors were then isolated and assessed for percentage of OT-I T cells from the total CD8+ T cells and OT-1 T cell number per gram of tumor tissue. To evaluate apoptosis, Naïve OT-1 splenocytes were stimulated by OVA257-264 (500 nM) without IL-2 in the presence of absence of sugars for 5 days followed by using Annexin V Apoptosis detection kit (Biolegend). […] To evaluate other cellular characteristics, naïve OT-1 splenocytes were stimulated by OVA257-264 (500 nM) with IL-2 (60 IU/mL) in the presence or absence of sugars for 7 or 8 days. On day 7 or 8 cells were taken and analyzed by assessment of ROS, NADPH/NADP+ ratio, and GSH/GSSG ratio.

[6] = system: OT-1 CD8+ T cells; test: OT-1 splenocyte activation and expansion, day 7 flow cytometry; type: cell-based, mouse
Experimental: Naïve splenocytes from OT-1 mice were stimulated in vitro with OVA257-264 (500 nM) and IL-2 (60 IU/mL) in the presence or absence of an added compound for 3 days at a density of 1 million/mL (100 uL/well in 96/well plate), then expanded for 4 days. On day 7, PD-1, Tim3 and TCF-1 expressions were assessed by flow cytometry by staining cells with anti-CD8a (PerCP-Cy5.5), anti-Tim3 (BV421) and anti-TCF-1 (AF488) antibodies. For adoptive transfer, 0.6M B16-OVA cells (6×10^5) were inoculated subcutaneously 3 to 5 days before transfer in C57BL/6. On the day of adoptive transfer, mice were irradiated with 5 Gy X-ray, randomized according to tumor size, and intravenously injected with 0.2-0.3M of CD8+OT-1 T cells (2×10^5) expanded under different conditions, followed by administration of 50000 IU IL-2 every 12 h for four days. In the control group, mice were injected with cell-free vehicle only. For assessment of adoptive transfer of OT-1 CD8+ T cells activated and expanded by contacting the cells with fructose, on day 9 after transfer, anti-PD-1 (100 ug/mouse) was administered to the mice that had received T cell transfer. For assessment of adoptive transfer of OT-1 CD8+ T cells activated and expanded by contacting cells with Neu5Ac, on day 14 and day 21 after transfer, anti-PD-1 (100 ug/mouse) was administered to the mice that had received T cell transfer. The tumor growth was monitored every 3 to 4 days by measuring tumor size. Percent survival was also monitored and recorded within a period of 40 days post treatment. To evaluate tumor infiltrating OT-1 T cells, 0.6M B16-OVA cells (6×10^5) were inoculated subcutaneously 3 to 5 days before transfer in C57BL/6. […] Tumors were then isolated and assessed for percentage of OT-I T cells from the total CD8+ T cells and OT-1 T cell number per gram of tumor tissue. […] On day 7 or 8 cells were taken and analyzed by assessment of ROS, NADPH/NADP+ ratio, and GSH/GSSG ratio.

[7] = system: OT-1 splenocytes; test: Apoptosis (Annexin V) and IL-2 production of OT-1 splenocytes stimulated without IL-2; type: cell-based, mouse; conditions: OVA257-264 500 nM without IL-2, 5 days
Experimental: as §1

[8] = system: OT-1 splenocytes; test: ROS, NADPH/NADP+ ratio and GSH/GSSG ratio of OT-1 splenocytes; type: cell-based, mouse; conditions: day 7 or 8, with IL-2; vs T cells not treated with sugar
Experimental: as §1

[9] = system: MC38 TSA-reactive CD8+ TILs; test: Rapid expansion of TSA-reactive CD8+ TILs from MC38 tumors; type: cell-based, mouse
Experimental: Sugars were added at the beginning or during the expansion of the TILs, and kept till the end of expansion. On expansion day 9, phenotypes of the expanded T cells were assessed, and the cells were used for adoptive transfer (FIG. 6E). For adoptive transfer, 0.5 million cells (B16-OVA or MC38) were inoculated subcutaneously on each mouse on day 0, Listeria monocytogenes-OVA (LM-OVA) infection 0.5 million CFU/mice on day 1, and blood analysis was recorded on day 7.

[10] = system: TILs from B16-OVA tumor; type: cell-based, mouse; conditions: day 7 rapid expansion; vs without sugars
Experimental: TILs from B16-OVA tumor were isolated on day10 after inoculation, and Tim-3^−TCF/GFP^+ and Tim-3^+TCF/GFP^− in tetramer positive population were collected by live cell sorting (FIG. 15A). Phenotype features of Tim-3^−TCF/GFP^+ (FIG. 15B) and Tim-3^+TCF/GFP^− (FIG. 15C) were analyzed on day 7 after rapid expansion with feeder cells (TILs/feeder cell: 1/200) in the presence or absence of sugars.
To investigate which population that sugars mainly changed on T cells, B16-OVA cancer cells (7×10^5 cells) were subcutaneously inoculated into the left or right flank of TCF7^GFP mice expressing an EGFP fluorescent reporter from the endogenous Tcf7 locus, which enable us to track the expression of TCF-1 in live cells.

[11] = Mus musculus, Splenocyte, 168 h, 60 mM, OT-1 cells, read-out: Proliferation fold, Normalized to W/O

SMILES: NC(=O)c1ncn([C@@H]2O[C@H](COP(=O)(O)O)[C@@H](O)[C@H]2O)c1N [AICAR, 5-Aminoimidazole-4-carboxamide ribonucleotide]
- cell proliferation [1]: without significant impact on cell proliferation

SMILES: O=C(CO)[C@@H](O)[C@H](O)[C@H](O)CO [Fructose, fructose]
- Tim3^−TCF-1^+ ratio of CD8^+ T cells (%) ([2]; 80 mM): 43.9%
- activity at 80000 µM ([2]; Mus musculus, Splenocyte, 168 h, 80 mM, OT-1 cells, read-out: Proliferation fold, Normalized to W/O): 109%
- Fold of proliferation, Normalized to W/O ([3]; Day6, 80 mM): 2.10 fold
- Tim3^−TCF-1^+ ratio of CD8^+ T cells (%) ([3]; Day6, 80 mM, w/o 55.0): 87.9%
- Fold of proliferation, Normalized to W/O ([3]; Day9, 80 mM): 2.94 fold
- Tim3^−TCF-1^+ ratio of CD8^+ T cells (%) ([3]; Day9, 80 mM, w/o 3.5): 48.9%
- percentages and total numbers of expanded virus-specific P14 CD8+ T cells in the spleen and liver [4]: significantly higher
- capabilities to control tumor growth ([5]; adoptive transfer of sugar-treated OT-1 T cells, vs untreated T cells): significantly better

SMILES: O=C[C@H](O)[C@@H](O)[C@@H](O)[C@H](O)CO [Galactose, galactose]
- Fold of proliferation, Normalized to W/O ([3]; Day6, 80 mM): 1.59 fold
- Tim3^−TCF-1^+ ratio of CD8^+ T cells (%) ([3]; Day6, 80 mM, w/o 55.0): 88.9%
- Fold of proliferation, Normalized to W/O ([3]; Day9, 80 mM): 1.87 fold
- Tim3^−TCF-1^+ ratio of CD8^+ T cells (%) ([3]; Day9, 80 mM, w/o 3.5): 37.4%
- T cell proliferation ([6]; 80 mM, OT-1 cells): significantly suppressed
- percentage of Tim3−TCF-1+ CD8+ T cells (in words) ([6]; OT-1 cells day 7, compared with fructose or sucrose): increased the percentage of Tim3−TCF-1+ CD8+ T cells but at a lower level

SMILES: O=C[C@H](O)[C@@H](O)[C@H](O)[C@H](O)C(=O)O [GlcA, glucuronic acid]
- Tim3^−TCF-1^+ ratio of CD8^+ T cells (%) ([2]; 60 mM): 65.3%
- activity at 60000 µM [2, 11]: 97%

SMILES: CC(=O)N[C@H]1C(O)O[C@H](CO)[C@@H](O)[C@@H]1O (stereo partly shown) [GlcNAc, N-Acetylglucosamine]
- Tim3^−TCF-1^+ ratio of CD8^+ T cells (%) ([2]; 60 mM): 28.8%
- activity at 60000 µM [2, 11]: 145%
- Fold of proliferation, Normalized to W/O ([3]; Day6, 60 mM): 2.47 fold
- Tim3^−TCF-1^+ ratio of CD8^+ T cells (%) ([3]; Day6, 60 mM, w/o 55.0): 89.2%
- Fold of proliferation, Normalized to W/O ([3]; Day9, 60 mM): 1.44 fold
- Tim3^−TCF-1^+ ratio of CD8^+ T cells (%) ([3]; Day9, 60 mM, w/o 3.5): 21.2%
- tumor infiltrating OT-1 T cell numbers ([5]; treated T cells transferred to B16-OVA mice): increased
- viability and apoptotic characteristics ([7]; vs T cells not treated with sugar): enhanced viability and differential apoptotic characteristics
- production of IL-2 ([7]; vs no sugar): significantly greater
- GSH/GSSG ratio [8]: greater
- NADPH/NADP+ ratio [8]: greater
- ROS [8]: significantly less
- cell surface anti-CLA (Cutaneous Lymphocyte-associated Antigen) staining [9]: significant increase
- maintenance of progenitor exhausted features of sorted Tim-3-TCF-GFP^+ TILs [10]: maintain more Tim-3^−TCF/GFP^+ cells
